Results reported in ChEMBL document CHEMBL1201862, “PubChem BioAssay data set” (2004).
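Test compounds were applied to cells in 96-well plates for 48 hours at 5 doses. GI50 marks 50% less growth.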 The source made the active and inactive calls. Rule as the data show it: active = GI50 up to about 1.1 µM and inactive = higher.

Columns and labels:
Test in all cases: NCI-60 cell line screen, 48 h
[1] = tested on: A498
[2] = tested on: CAKI-1
[3] = tested on: EKVX
[4] = tested on: Hs-578T
[5] = tested on: MCF7
[6] = tested on: MDA-MB-435
[7] = tested on: MOLT-4
[8] = tested on: NCI-H226
[9] = tested on: NCI-H23
[10] = tested on: NCI-H522
[11] = tested on: NCI/ADR-RES
[12] = tested on: OVCAR-3
[13] = tested on: PC-3
[14] = tested on: SN12C
[15] = tested on: SR
[16] = tested on: UACC-257
[17] = tested on: UACC-62
[18] = tested on: M14
[19] = tested on: RPMI-8226
[20] = tested on: SK-OV-3

Measured: GI50

O=C(O)c1nc2ccc(C(F)(F)F)cc2nc1Nc1ccc(Cl)c(Cl)c1
inactive: [1] 13.6 µM | [2] 15.5 µM | [3] 7.26 µM | [4] 18.4 µM | [5] 14.3 µM | [6] 5.74 µM | [7] 4.37 µM | [8] 10.6 µM | [9] 4.17 µM | [10] 2.95 µM | [11] 5.96 µM | [12] 6.37 µM | [13] 4.58 µM | [14] 7.67 µM | [15] 4.15 µM | [16] 29.2 µM | [17] 2.3 µM

O=c1oc2ccccc2c(-c2ccc(O)cc2)c1Oc1ccc(Cl)cc1
inactive: [1] 26.6 µM | [2] 28.8 µM | [3] 16.8 µM | [4] 16.1 µM | [18] 17.1 µM | [5] 4.88 µM | [6] 30 µM | [8] 20.5 µM | [9] 20.7 µM | [10] 16.9 µM | [11] 24.5 µM | [12] 14.9 µM | [13] 25.8 µM | [19] 20.7 µM | [14] 24 µM | [15] 18.2 µM | [16] 28.2 µM | [17] 19.9 µM

COC(OC)C(O)C1OC=CC1n1cnc2c(N)ncnc21 (stereo not drawn)
inactive: [1] > 100 µM | [2] > 100 µM | [3] > 100 µM | [4] > 100 µM | [5] > 100 µM | [6] > 100 µM | [7] > 100 µM | [8] > 100 µM | [9] > 100 µM | [11] > 100 µM | [12] > 100 µM | [13] > 100 µM | [19] > 100 µM | [20] > 100 µM | [14] > 100 µM | [15] > 100 µM | [16] > 100 µM | [17] > 100 µM

COc1c2ccoc2cc2oc(=O)ccc12 [BERGAPTEN]
inactive: [1] > 100 µM | [2] > 100 µM | [3] 18.7 µM | [4] 65.5 µM | [18] > 100 µM | [5] > 100 µM | [6] > 100 µM | [7] > 100 µM | [8] > 100 µM | [9] > 100 µM | [10] > 100 µM | [11] > 100 µM | [12] > 100 µM | [13] > 100 µM | [19] > 100 µM | [14] > 100 µM | [15] > 100 µM | [16] > 100 µM | [17] > 100 µM

O=C(/C=C/c1ccc(O)cc1)c1cc(-c2cc(CCC(=O)c3ccc(O)cc3O)ccc2O)c(O)cc1O
inactive: [1] 24.8 µM | [2] > 50 µM | [3] > 50 µM | [4] 23.7 µM | [18] 41.6 µM | [5] 28.1 µM | [6] 17 µM | [7] 7.23 µM | [9] 35.9 µM | [10] 22.3 µM | [11] > 50 µM | [12] 14.1 µM | [13] 22.6 µM | [19] 16.3 µM | [20] 16.9 µM | [14] 32.2 µM | [15] 10.4 µM | [16] > 50 µM | [17] 22.8 µM

Nc1nccc(NCC2(CO)CC(OCc3ccccc3)C2)n1 (stereo not drawn)
inactive: [1] > 100 µM | [2] > 100 µM | [3] 77.4 µM | [4] > 100 µM | [5] > 100 µM | [6] > 100 µM | [7] > 100 µM | [8] > 100 µM | [9] > 100 µM | [10] 98.9 µM | [11] > 100 µM | [12] 87.5 µM | [13] > 100 µM | [19] > 100 µM | [14] > 100 µM | [15] > 100 µM | [16] > 100 µM | [17] > 100 µM

CC[C@]12C=CCN3CC[C@@]4(c5cc(Br)c(OC)cc5N(C)[C@H]4[C@@](O)(C(=O)N[C@@H](Cc4ccc(O)cc4)C(=O)OC)[C@@H]1O)[C@@H]32
inactive: [1] 18.1 µM | [2] 18.7 µM | [3] 29.2 µM | [4] 20.7 µM | [18] 28 µM | [5] 23.1 µM | [6] 16.4 µM | [7] 14.2 µM | [9] 52.4 µM | [10] 17.7 µM | [11] 20.7 µM | [12] 25.6 µM | [13] 39 µM | [19] 15.6 µM | [20] 74.5 µM | [14] 16.5 µM | [15] 13.8 µM | [16] 16.3 µM | [17] 17.6 µM

O=c1ccn([C@@H]2C[C@H]2CO)c(=O)[nH]1
inactive: [1] > 100 µM | [2] > 100 µM | [3] > 100 µM | [4] > 100 µM | [18] > 100 µM | [5] > 100 µM | [6] > 100 µM | [7] > 100 µM | [8] > 100 µM | [9] > 100 µM | [10] > 100 µM | [11] > 100 µM | [13] > 100 µM | [19] > 100 µM | [14] > 100 µM | [15] > 100 µM | [16] > 100 µM | [17] > 100 µM

CC1(C)C2C=CC1(C)C1(CC2)OCCO1 (stereo not drawn)
inactive: [1] > 100 µM | [4] > 100 µM | [18] > 100 µM | [5] > 100 µM | [6] > 100 µM | [7] > 100 µM | [8] > 100 µM | [9] > 100 µM | [11] > 100 µM | [12] > 100 µM | [13] > 100 µM | [19] > 100 µM | [20] > 100 µM | [14] > 100 µM | [15] > 100 µM | [16] > 100 µM | [17] > 100 µM

CS(=O)(=O)Nc1ccc2c(c1)N(S(C)(=O)=O)CC2CCl (stereo not drawn)
inactive: [1] > 100 µM | [2] > 100 µM | [3] > 100 µM | [4] > 100 µM | [5] > 100 µM | [6] > 100 µM | [7] > 100 µM | [8] > 100 µM | [9] > 100 µM | [10] > 100 µM | [11] > 100 µM | [12] > 100 µM | [13] > 100 µM | [19] > 100 µM | [14] > 100 µM | [15] > 100 µM | [16] > 100 µM | [17] > 100 µM

O=c1cc(NNCc2ccccc2)[nH]c(=O)[nH]1
inactive: [1] > 100 µM | [2] > 100 µM | [3] > 100 µM | [4] 58.1 µM | [18] > 100 µM | [5] > 100 µM | [6] > 100 µM | [7] 69.2 µM | [8] > 100 µM | [9] > 100 µM | [11] > 100 µM | [12] > 100 µM | [13] > 100 µM | [19] > 100 µM | [14] > 100 µM | [15] > 100 µM | [16] > 100 µM
